Laboratory results: patent publication US20040009495A1, “Methods and products related to drug screening using gene expression patterns” (Whitehead Institute for Biomedical Research, priority 2001, published 2004)

Legend:
HL60 cells [1] = assay: HL60 cell differentiation on exposure to inducing chemical; type: cell-based
Experimental: HL60 cells, provided by American Type Cell Culture (Manassas, Va.), were grown in RPMI medium 1640 with 10% fetal bovine serum (Sigma, St. Louis, Mo.) and 1% penicillin-streptomycin. For design of the model, neutrophil differentiation was stimulated with 1 uM ATRA (Sigma, St. Louis, Mo.) for 0, 24, 48, 72, and 120 hours and with 1.25% dimethyl sulfoxide (DMSO) (American Bioanalytical, Natick, Mass.) for 72 hours. Monocyte/macrophage differentiation was induced with 10 nM phorbol 12-myristate 13-acetate (PMA) (Sigma, St. Louis, Mo.) for 0, 4, 12, and 24, and 120 hours and with Vitamin D3 (1 alpha 25-dihydroxy) (Calbiochem, San Diego, Calif.) 2.5 uM for 72 hours. Differentiation was confirmed by morphological changes by light microscopy for monocyte/macrophage differentiation and by May Grunwald Giemsa stain for neutrophil differentiation.
Acute Myeloid Leukemia (AML) represents a form of cancer for which improved treatment in therapy is greatly sought. For more than 20 years, researchers have used a cell line (HL60 cell line) which closely mimics the behavior of AML and which is easily maintained in cell culture. […] The different gene expression signatures were evaluated for “in vivo authenticity” by confirming the same gene expression differences in native human neutrophils and native human monocytes compared to patient AML cells. […]

HL60 cells [2] = assay: Marker gene expression ratios to GAPDH in HL60 control cells (multiplex RT-PCR, direct gene dendrimer readout); type: cell-based; details: for Ave IL1RN/GAPDH / Ave SPP1/GAPDH / IL1RN fold increase over AML / SPP1 fold increase over AML: HL60 cells; for Ave IL1RN/GAPDH / Ave SPP1/GAPDH: highest stringency filter of 50% dilution, 1 uM ATRA or 10 nM PMA; for IL1RN fold increase over AML / SPP1 fold increase over AML: versus undifferentiated HL60 (AML)
[3] = treated HL60 cells, text summary over 3 plex and 5 plex

Row | Structure (SMILES) | differentiation of HL60 cells upon exposure (HL60 cells [1]) | Ave IL1RN/GAPDH (HL60 cells [2]; 3 plex) | Ave SPP1/GAPDH (HL60 cells [2]; 3 plex) | IL1RN fold increase over AML (HL60 cells [2]; 3 plex) [fold] | SPP1 fold increase over AML (HL60 cells [2]; 3 plex) [fold] | Ave IL1RN/GAPDH (HL60 cells [2]; 5 plex) | Ave SPP1/GAPDH (HL60 cells [2]; 5 plex) | IL1RN fold increase over AML (HL60 cells [2]; 5 plex) [fold] | SPP1 fold increase over AML (HL60 cells [2]; 5 plex) [fold] | IL1RN increase with respect to AML (HL60 cells [2]; [3]) | SSP1 increase over AML (HL60 cells [2]; [3])
1 | CCCCCCCCCCCCCC(=O)O[C@@H]1[C@@H](C)[C@@]2(O)[C@@H](C=C(CO)C[C@]3(O)C(=O)C(C)=C[C@@H]23)[C@@H]2C(C)(C)[C@]12OC(C)=O [PMA, Phorbol 12-myristate 13-acetate] | differentiated into monocyte/macrophage | 2.04 | 1.17 | 84.4 | 55.1 | 0.98 | 0.55 | 40.5 | 25.9 | 40-84 fold | 25-55 fold
2 | CC1=C(/C=C/C(C)=C/C=C/C(C)=C/C(=O)O)C(C)(C)CCC1 [ATRA, all trans retinoic acid] | differentiated into neutrophils | 0.02 | 0.03 | – | – | 0.02 | 0.02 | – | – | – | –
